# Results as given in paper PMC4632323, “Development of a neuroprotective peptide that preserves survival pathways by preventing Kidins220/ARMS calpain processing induced by excitotoxicity” (Cell Death & Disease, 2015).
# Where a SMILES comes first, the peptide text is derived from it. Where no end group is shown, it is not given here. The star is where a group is joined. Cbz = O=C(OCc1ccccc1)*
# What was measured:
# [1] = test system: Kidins220; assay: In vitro digestion of neuronal protein extracts with purified calpain I, immunoblot (Kid-Ct); type: biochemical, rat; details: calpain I 0-80 U/ml, 15 or 30 min, inhibitor 20 μM
# Method: (c) Protein extracts from cortical neurons subjected to in vitro digestion with purified calpain I (0, 20, 50 or 80 U/ml) for 15 or 30 min in the absence or presence of calpain inhibitor CiIII (20 μM).
# Protein extracts from cortical neurons were subjected to in vitro digestion with purified calpain I (20 U/ml) for 15 min in the presence of peptides Tat-K (K) or Tat-S (S) (0.5 μM). Results were analyzed by immunoblot with Kidins220 (Kid-Ct), spectrin and NSE antibodies.
# [2] = test system: Kidins220; assay: Kidins220 calpain processing induced by NMDAR overactivation in cortical neurons, immunoblot; type: cell-based, rat; details: inhibitor added 1 h before NMDA 100 μM + glycine 10 μM, 4 h; CiIII 20 μM, lactacystin 15 μM; Kid-Nt immunoblot
# Method: Figure 1 Approximate mapping of Kidins220 processing sites recognized by calpain after induction of excitotoxicity. (a) Immunoblot analysis of primary neuronal cultures (DIV 14) treated with high concentrations of NMDA (100 μM) and glycine (10 μM), herein indicated as NMDA, for 0–6 h. Kidins220 antibodies recognizing a C-terminal peptide (amino acids 1746–1762; Kid-Ct) or the N-terminal region (amino acids 1–402; Kid-Nt), or that specific for the protein neuronal-specific enolase (NSE) were used. Bands corresponding to endogenous full-length (FL) Kidins220 or its different processing N-terminal fragments (Nt-0/Nt-9) are indicated. […]
# (a) Cell-membrane peptide Tat-K contains from the N- to the C-terminus amino acids 47–57 of the HIV-1 Tat protein (italic) followed by two proline linker residues and rat Kidins220 amino acids 1668–1681 (bold), which include the major calpain cleavage site (arrow). […] Results were analyzed by immunoblot with Kidins220 (Kid-Ct), spectrin and NSE antibodies. […] Primary cultures of neurons (DIV 14) were incubated with 5, 10 or 25 μM of FITC-labeled control peptide (FITC-Tat-S) for 2, 4 or 6 h and pictures were taken in a conventional fluorescence microscope. […] Cortical neurons were pre-incubated for 1 h with 10 or 25 μM of Tat-K (K) or Tat-S (S) before NMDA addition for 4 h and analyzed by immunoblot with Kidins220 (Kid-Ct), spectrin and NSE antibodies. […]
# [3] = test system: cortical neurons; assay: Calcein-AM/propidium iodide staining of viable and dead neurons after excitotoxicity; type: cell-based, rat; details: peptide 25 μM pre-incubated 1 h, NMDA 4 h; mean ± S.E.M., n=7
# Method: Figure 5 Neuroprotective effect exerted by Tat-K transduction on excitotoxic neuronal death. (a) Effect of Tat-K on cell death induced by NMDAR overactivation. Primary cultures of cortical neurons (DIV 14) were pre-incubated for 1 h with Tat-S or Tat-K (25 μM) and treated with NMDA for 4 h or left untreated. Next, viable and dead cells were visualized by simultaneous fluorescence staining with calcein-AM (1 μM; green) and propidium iodide (PI; 0.5 mM; red), respectively, for 15 min at 37 °C in the dark. Representative images for each condition are shown. Scale bar, 25 μm. (b) Quantitation of Tat-K effect on the relative percentage of viable/dead neurons found in excitotoxic conditions. A minimum of five random fields containing at least 500 neurons each were counted per experimental condition. […] Statistical significance was determined by paired Student's t-test (**P<0.01). (c) Quantitation of the effect of Tat-K on neuronal viability after induction of excitotoxicity. […] Neuronal viability was established by MTT reduction assay after subtracting the contribution of the glial cells present in the mixed cultures to absorbance as indicated in the Methods section. […] Statistical significance was determined by paired Student's t-test (*P<0.05, **P<0.01) […]
Molecule,Effect on calpain I cleavage of Kidins220 (decrease of FL-Kidins220 and accumulation of Ct-0) [1],Effect on NMDA-induced Kidins220 processing (Nt-1/Nt-9 production) [2],Viable neurons (calcein-AM) relative to total number of neurons [3]
"CC(C)[C@H](NC(=O)OCc1ccccc1)C(=O)N[C@H](C=O)Cc1ccccc1 [CiIII, carbobenzoxy–valinyl–phenylalaninal] (Cbz-Val-Phe-aldehyde)",inhibited,strongly prevented NMDA-induced processing,–
YGRKKRRQRRRPPLNRTPSTVTLNNNT [Tat-K],–,–,40±7%
YGRKKRRQRRRPPNTTTLSNLPTNVRN [Tat-S],–,–,23±7%
